# Measurements reported in patent US12325696B2, “Indazole derivative, preparation method therefor, and pharmaceutical application thereof” (JIANGSU HENGRUI MEDICINE CO., LTD., priority 2019, dated 2025).
# Tests used:
# Assay type in all cases: cell-based
# [1] = system: estrogen receptor reporter gene; assay: Inhibition of estrogen receptor reporter gene activity (ERE-luc luciferase) in MCF7/ERE-luc cells; details: Homo sapiens, 0.1 nM β-estradiol, 20 hours, read-out: IC50 of inhibitory activity on the activity of the estrogen receptor reporter gene
# Experimental: MCF7 cells MCF7/ERE-luc (ATCC, HTB-22) expressing the luciferase reporter gene ERE-luc (synthesized by GENEWIZ, Inc.) controlled by the estrogen receptor response element were cultured in MEM (GE Healthcare, SH30024.01) medium containing 10% fetal bovine serum and 500 µg/ml G418. On the first day of the experiment, MCF7/ERE-luc cells were seeded in a 96-well plate with incomplete MEM medium containing 10% fetal bovine serum treated with activated charcoal (BioSun, BS-0004-500) at a density of 30,000 cells/well (100 μl of cell suspension per well), and the plate was incubated in a cell incubator at 37° C. and 5% CO2 overnight. On the second day, 10 μl of β-estradiol (SIGMA, E2758-250MG) solution formulated with the above incomplete medium or test compound solution of different concentrations formulated with the above incomplete medium was added to each well, wherein the final concentration of β-estradiol was 0.1 nM, and the final concentrations of the compound were nine concentration points obtained by a 10-fold gradient dilution starting from 10 μM, a blank control containing 0.5% DMSO was set, and the plate was incubated in a cell incubator at 37° C. and 5% CO2 for 20 hours. On the third day, the 96-well plate was taken out, and 100 μl of ONE-Glo™ Luciferase Assay system (Promega, E6110) was added to each well to determine the activity of luciferase. The plate was left to stand at room temperature for 3 minutes until the cells were fully lysed, and the luminescence signal values were measured using a multi-label microplate reader (PerkinElmer, VICTOR 3). The IC50 values of the inhibitory activity of the compounds were calculated using Graphpad Prism software based on the concentrations and luminescence signal values of the compounds.
# The inhibitory effect of the compounds of the present disclosure on the activity of the estrogen receptor reporter gene was determined by the above test. A graph of the chemiluminescence signal values versus the logarithmic concentrations of the compound was made using Graghpad Prism.
# MCF7 cell = assay: Inhibition of proliferation of MCF7 cell (CellTiter-Glo, 144 hours); details: Homo sapiens; for IC50: MCF7, CellTiter-Glo, read-out: IC50 of the inhibitory effect on the proliferation of MCF7 cell; for Emax: MCF7 cell proliferation, read-out: Maximum inhibition
# Experimental: (§1) MCF7 cells (ATCC, HTB-22) were cultured in MEM (GE Healthcare, SH30024.01) complete medium containing 10% fetal bovine serum. On the first day of the experiment, MCF7 cells were seeded in a 96-well plate with the complete medium at a density of 3,000 cells/well (100 μl of cell suspension per well), and the plate was incubated in a cell incubator at 37° C. and 5% CO2 overnight. On the second day, the medium in each well was replaced with 135 μl of MEM incomplete medium containing 2% fetal bovine serum. 15 μl of test compound solution of different concentrations formulated with the incomplete medium was added to each well, wherein the final concentrations of the compound were nine concentration points obtained by a 4-fold gradient dilution starting from 100 nM. A blank control containing 0.5% DMSO was set. The plate was incubated in a cell incubator at 37° C. and 5% CO2 for 144 hours. On the eighth day, the 96-well plate was taken out, and 150 μl of CellTiter-Glo® Luminescent Cell Viability Assay (Promega, G7573) was added to each well. The plate was left to stand at room temperature for 10 minutes, and the luminescence signal values were measured using a multi-label microplate reader (PerkinElmer, VICTOR 3). The IC50 values of the inhibitory activity of the compounds were calculated based on the concentrations and luminescence signal values of the compounds using Graphpad Prism software.
# A graph of the chemiluminescence signal values versus the logarithmic concentrations of the compound was made using Graghpad Prism to obtain the IC50 values of the compound.
# MCF7 D538G = assay: Inhibition of proliferation of MCF7 cell expressing ERα D538G mutant; details: Homo sapiens, 144 hours; for Emax: read-out: Maximum inhibition
# Excerpt: (§2) The mutants ERα Y537S and ERα D538G of human estrogen receptor α (ERαs) protein were obtained by site-directed mutagenesis using the cDNA of wild-type ESR1 gene (Accession No. NM000125) as a template according to double-primer PCR. The primer sequences used for mutagenesis are as follows (the nucleotides underlined are the sites of mutagenesis):
# (§3) The cDNA of mutant ESR1 was cloned into the target lentiviral vector pCDH-CMV-MCS-EF1-Puro (SBI, CD510B-1). The lentiviral plasmid with the mutant ESR1 gene sequence and the lentiviral packaging plasmids pVSV-G and pCMV-dR8.91 (SBI, LV500A-1) were transfected into HEK-293T cells (ATCC, CRL-3216) by Lipofectamine 3000 Transfection Reagent (ThermoFisher Scientific, Cat #L3000075). 48 hours after the transfection, the supernatant of the virus-containing DMEM high-glycemic medium (GE Healthcare, SH30243.01) containing 10% FBS was filtered, and ultracentrifuged to obtain the virus pellet. The virus pellet was resuspended in an appropriate amount of MEM medium (GE Healthcare, SH30024.01) containing 10% FBS, non-essential amino acids (SIGMA, M7145-100ML) and sodium pyruvate (SIGMA, S8636-100ML), and the resulting suspension was added to MCF7 cells (ATCC, HTB-22). Polybrene (SIGMA, H9268-5G) at a final concentration of 8 µg/ml was added, and the cells were incubated overnight. Two days after the transfection, […] puromycin (invitrogen, A11138-03) was added to the cell culture medium for resistance screening. After about two weeks, the MCF7 cell line capable of stably expressing ERαY537S and ERα D538G mutants was obtained.
# as §1, with “MCF7 cells expressing ERα mutant were cultured” for “MCF7 cells (ATCC, HTB-22) were cultured”, “the experiment, the cells were” for “the experiment, MCF7 cells were”, “control containing 0.500 DMSO was” for “control containing 0.5% DMSO was”, “C. and […] for” for “C. and 5% CO2 for”, “and 150 of CellTiter-Glo®” for “and 150 μl of CellTiter-Glo®”
# MCF7 ERαY537S = assay: Inhibition of proliferation of MCF7 cell expressing ERα Y537S mutant; details: Homo sapiens, 144 hours; for Emax: read-out: Maximum inhibition
# Excerpt: as §2, §3
# as §1, with “MCF7 cells expressing ERα mutant were cultured” for “MCF7 cells (ATCC, HTB-22) were cultured”, “the experiment, the cells were” for “the experiment, MCF7 cells were”, “control containing 0.500 DMSO was” for “control containing 0.5% DMSO was”, “C. and […] for” for “C. and 5% CO2 for”, “and 150 of CellTiter-Glo®” for “and 150 μl of CellTiter-Glo®”
Compound,IC50 [1],IC50 (MCF7 cell),Emax (MCF7 cell),IC50 (MCF7 D538G),Emax (MCF7 D538G),IC50 (MCF7 ERαY537S),Emax (MCF7 ERαY537S)
"CC#CC(=O)N1CCC(Oc2ccc(/C(=C(/CC(F)(F)F)c3ccccc3)c3ccc4[nH]nc(F)c4c3)cn2)CC1 [Example 10, (Z)-1-(4-((5-(4,4,4-Trifluoro-1-(3-fluoro-1H-indazol-5-yl)-2-phenylbut-1-en-1-yl)pyridin-2-yl)oxy)piperidin-1-yl)but-2-yn-1-one]",8 nM,0.3 nM,104%,4 nM,104%,7 nM,86%
"CNC(=O)/C=C/CN1CCC[C@@H](Oc2ccc(/C(=C(/CC(F)(F)F)c3ccccc3)c3ccc4[nH]nc(F)c4c3)cn2)C1 [Example 11, (E)-N-Methyl-4-((R)-3-((5-((Z)-4,4,4-trifluoro-1-(3-fluoro-1H-indazol-5-yl)-2-phenylbut-1-en-1-yl)pyridin-2-yl)oxy)piperidin-1-yl)but-2-enamide]",3 nM,0.5 nM,110%,1 nM,100%,2 nM,107%
"O=C(/C=C/CN1CCC[C@@H](Oc2ccc(/C(=C(/CC(F)(F)F)c3ccccc3)c3ccc4[nH]nc(F)c4c3)cn2)C1)NC1CCOCC1 [Example 13, (E)-N-(Tetrahydro-2H-pyran-4-yl)-4-((R)-3-((5-((Z)-4,4,4-trifluoro-1-(3-fluoro-1H-indazol-5-yl)-2-phenylbut-1-en-1-yl)pyridin-2-yl)oxy)piperidin-1-yl)but-2-enamide]",3 nM,0.6 nM,88%,3 nM,107%,5 nM,104%
"CC(C)(C)NC(=O)/C=C/CN1CCC[C@@H](Oc2ccc(/C(=C(/CC(F)(F)F)c3ccccc3)c3ccc4[nH]nc(F)c4c3)cn2)C1 [Example 16, (E)-N-(Tert-butyl)-4-((R)-3-((5-((Z)-4,4,4-trifluoro-1-(3-fluoro-1H-indazol-5-yl)-2-phenylbut-1-en-1-yl)pyridin-2-yl)oxy)piperidin-1-yl)but-2-enamide]",5 nM,0.8 nM,102%,2 nM,110%,4 nM,88%
"O=C(/C=C/CN1CCC[C@@H](Oc2ccc(/C(=C(/CC(F)(F)F)c3ccccc3)c3ccc4[nH]nc(F)c4c3)cn2)C1)NC1CCCC1 [Example 17, (E)-N-Cyclopentyl-4-((R)-3-((5-((Z)-4,4,4-trifluoro-1-(3-fluoro-1H-indazol-5-yl)-2-phenylbut-1-en-1-yl)pyridin-2-yl)oxy)piperidin-1-yl)but-2-enamide]",6 nM,0.6 nM,96%,3 nM,104%,3 nM,102%
"CC#CC(=O)N1CCC[C@@H](Oc2ccc(/C(=C(/CC(F)(F)F)c3ccccc3)c3ccc4[nH]nc(F)c4c3)cn2)C1 [Example 25, (R,Z)-1-(3-((5-(4,4,4-Trifluoro-1-(3-fluoro-1H-indazol-5-yl)-2-phenylbut-1-en-1-yl)pyridin-2-yl)oxy)piperidin-1-yl)but-2-yn-1-one]",3 nM,0.5 nM,109%,1 nM,112%,1 nM,107%
"C=CC(=O)N1CCC[C@@H](Oc2ccc(/C(=C(/CC(F)(F)F)c3ccccc3)c3ccc4[nH]nc(F)c4c3)cn2)C1 [Example 26, (R,Z)-1-(3-((5-(4,4,4-Trifluoro-1-(3-fluoro-1H-indazol-5-yl)-2-phenylbut-1-en-1-yl)pyridin-2-yl)oxy)piperidin-1-yl)prop-2-en-1-one]",3 nM,0.3 nM,103%,1 nM,111%,2 nM,104%
"CN(C)C(=O)/C=C/CN1CC[C@@H](Oc2ccc(/C(=C(/CC(F)(F)F)c3ccccc3)c3ccc4[nH]nc(F)c4c3)cn2)C1 [Example 29, (E)-N,N-Dimethyl-4-((R)-3-((5-((Z)-4,4,4-trifluoro-1-(3-fluoro-1H-indazol-5-yl)-2-phenylbut-1-en-1-yl)pyridin-2-yl)oxy)pyrrolidin-1-yl)but-2-enamide]",3 nM,0.4 nM,93%,3 nM,93%,2 nM,93%
"CN(C)C(=O)/C=C/CN1CCC(Nc2ccc(/C(=C(/CC(F)(F)F)c3ccccc3)c3ccc4[nH]nc(F)c4c3)cn2)CC1 [Example 33, (E)-N,N-Dimethyl-4-(4-((5-((Z)-4,4,4-trifluoro-1-(3-fluoro-1H-indazol-5-yl)-2-phenylbut-1-en-1-yl)pyridin-2-yl)amino)piperidin-1-yl)but-2-enamide]",3 nM,0.3 nM,105%,1 nM,106%,2 nM,105%
"CN(C)C(=O)/C=C/CN[C@@H]1CCN(c2ccc(/C(=C(/CC(F)(F)F)c3ccccc3)c3ccc4[nH]nc(F)c4c3)cn2)C1 [Example 34, (E)-N,N-Dimethyl-4-(((R)-1-(5-((Z)-4,4,4-trifluoro-1-(3-fluoro-1H-indazol-5-yl)-2-phenylbut-1-en-1-yl)pyridin-2-yl)pyrrolidin-3-yl)amino)but-2-enamide]",3 nM,0.2 nM,103%,1 nM,101%,1 nM,105%
